From patent publication US20080280860A1, “Use of Vitamin D Compounds to Treat Endometriosis” (BioXell S.p.A., priority 2005, published 2008)

How the values were obtained:
peritoneal macrophages = experiment: ELISA quantification of cytokine produced by peritoneal macrophages; format: in vivo, mice
Description: Peritoneal cells were recovered two weeks after unterus transfer in cold PBS, 2 mM EDTA, by peritoneal lavage of treated (Compound A at 100 ug/kg) and untreated (vehicle only) animals prepared according to the procedure described previously in Examples 1 to 3 (pool of 5 mice per group). Peritoneal macrophages were counted directly after collection using Turk reagent, washed, and placed into culture with RPMI/glutamax 5% FC I, pen/strep, Na pyruvate. After 2 hr at 37° C. the non adherent cells were removed and the macrophages were cultured for a further 48 hr. The supernatant was harvested and cytokines (TNF-alpha, IL1-alpha, IL1-beta, IL6, MIP-2 and VEGF) were quantified using a specific ELISA (R&D System DuoSet). All ELISA determinations were performed in duplicate on the undiluted sample. The total cells number plated was assessed by CyQuant test and values of protein production were normalized to cell number.

endometriotic cells = experiment: Cell adhesion of endometrial stromal cells from treated animals; format: in vivo; settings: animals treated 100 ug/kg orally once a day for two days; 5 subjects per group; FIG. 9
Description: Paired animals were treated wth Compound A (100 ug/kg) orally once a day, for two days. The animals were then sacrificed and uterus horns were removed. Myometrium was removed by scraping with a scalpel blade and remaining endometrial tissue was reduced to small fragments with scissors.
Tissue was minced into small pieces (1 to 2 mm^3) and incubated at 37° C. for 1 h with 0.1% type A collagenase. At the end of the incubation, single stromal cells were separated from large dumps of epithelium by a 10 min. period of differential sedimentation at unity gravity. The top 8 ml of medium, containing predominantly stromal cells, were then slowly removed and the cells were collected by centrifugation. […]
Polystyrene 96-well plates (Costar) were coated with 50 ul/well of 8 mg/ml extracellular matrix (ECM) (Sigma, USA), and left uncovered in a laminar flow hood overnight to allow evaporation. […] The sample fluorescence in each well was measured using a fluorescence microplate reader with filters appropriate for 480 nm excitation and 520 nm emission maxima. Results were expressed as the percentage of total cells assuming that the adhesion of cells in the control was 100%. The percentage of adhesion was determined using the formula: (Abs after being rinsed with PBS/Abs no rinse)×100%. […]

[1] = system: Eutopic endometrium stromal cells; experiment: Proliferation of endometrial stromal cells in vitro (CyQuant), eutopic; format: cell-based; settings: 1 uM-0.1 nM, 48-96 hours; FIG. 2A
Description: Tissue was gently minced into small pieces (1 to 2 mm^3) and incubated at 37° C. for 1 h with 0.1% type A collagenase. At the end of the incubation, single stromal cells were separated from large clumps of epithelium by a 10 min. period of differential sedimentation at unity gravity. The top 8 ml of medium, containing predominantly stromal cells, were then slowly removed and the cells were collected by centrifugation. The stromal-enriched fraction was washed twice in culture medium and allowed to adhere selectively to tissue culture dishes for 15 min.
Thereafter, nonattached epithelial cells still present were removed and a purified stromal preparation was obtained on the surface of the culture dishes.
The cells were maintained in DMEM supplemented with 10% Fetal Bovine Serum (SIGMA) and 100 U/ml penicillin, 100 ug/ml streptomycin (GIBCO cat. no. 15140-122).
When the stromal cells were grown to confluence, were washed in PBS and then trypsinized using 1× trypsin/EDTA solution (PromoCell cat. no. C-41002). […] The proliferation was determined with CyQuant Cell Proliferation Assay (Molecular Probe cat. no. C7026). […]
The fluorescence was determined using a fluorescence microplate reader with filters appropriate for ˜480 nm excitation and ˜520 nm emission.

C=C1/C(=C\C=C2/CCC[C@]3(C)C([C@@H](C)C/C=C/C(O)(CC)CC)=CC[C@@H]23)C[C@@H](O)C[C@@H]1F [Compound A, 1-alpha-fluoro-25-hydroxy-16,23E-diene-26,27-bishomo-20-epi-cholecalciferol]
inflammatory cytokine and VEGF production (TNF-alpha, IL1-alpha, IL1-beta, IL6, MIP-2, VEGF) (peritoneal macrophages; 100 ug/kg versus vehicle, macrophages recovered two weeks after uterus transfer, cultured 48 hr, FIG. 11): dramatically reduced | cytokine production after re-activation in vitro with LPS (peritoneal macrophages; macrophages of treated animals, data not shown): still capable of producing the same cytokines | adhesion of endometriotic cells (endometriotic cells): dramatically reduce the adhesion | cell proliferation, Eutopic endometrium [1]: reduction in cell proliferation
